Results: patent US8680052B1, “Methods of treating, reducing the incidence of, and/or preventing ischemic events” (The Medicines Company, priority 2013, dated 2014)
Like-named read-outs stand apart in the source and are kept apart here.

Tests used:
[1] = test system: patients with acute coronary syndromes undergoing PCI; assay: Example 2: bleeding (GUSTO, TIMI, ACUITY) and adverse events up to 48 hours; format: in vivo, human
From the text: Multiple definitions of bleeding were used for full disclosure of bleeding risks associated with cangrelor: […] N Engl J Med 329:673-82 (1993); mild, moderate, or severe/life-threatening based on transfusion use and presence/absence of hemodynamic compromise); […] Investigators reported adverse and serious adverse events according to International Conference on Harmonization guidance (International Conference on Harmonization (ICH) Guidance Documents. U.S. Food and Drug Administration Web site. (Accessed on Oct. 8, 2009, at the FDA website beginning with “www.” and ending with “fda.gov/RegulatoryInformation/Guidances/ucm122049.htm”)).

[2] = test system: patients undergoing percutaneous coronary intervention (PCI); settings: 30-day; for OR (95% CI): All-cause mortality / OR (95% CI): IDR / OR (95% CI): MI / OR (95% CI): Mortality/MI/IDR / OR (95% CI): Mortality/Q-wave MI/IDR / OR (95% CI): Mortality/Q-wave MI/Stent thrombosis / OR (95% CI): Q-wave MI / OR (95% CI): Stent thrombosis: cangrelor vs comparator arm; for Mortality/Q-wave MI/IDR / Mortality/Q-wave MI/Stent thrombosis: exploratory
Description: The diagnosis of non-ST-segment elevation myocardial infarction required troponin I or T greater than the upper limit of normal within 24 hours of randomization (or if troponin results were unavailable at that time, creatine kinase-myocardial band isoenzyme [CK-MB] greater than the upper limit of normal). The diagnosis of unstable angina required ischemic chest discomfort occurring at rest and lasting ≧10 minutes within the 24 hours prior to randomization and dynamic electrocardiographic changes; age ≧65 years and/or diabetes mellitus were also required.
The primary efficacy endpoint was the composite of mortality, myocardial infarction, or ischemia-driven revascularization at 48 hours. The primary analysis was performed on a modified intent-to-treat population. Confirmatory analyses were performed on an intent-to-treat population. Secondary endpoints included the individual rates of mortality, myocardial infarction, new Q-wave myocardial infarction, ischemia-driven revascularization, abrupt vessel closure, or stroke at 48 hours. Mortality at 30 days and 1 year was also recorded. The clinical events committee adjudicated myocardial infarction, Q-wave myocardial infarction, ischemia-driven revascularization, stent thromboses, and stroke (ischemic or hemorrhagic). The definition of stent thrombosis was similar to the Academic Research Consortium definition of definite stent thrombosis. After review of the prespecified analyses, two exploratory endpoints less reliant on periprocedural biomarker ascertainment were examined. The exploratory endpoints, which were composed of prespecified and adjudicated endpoints, were the composite of mortality, Q-wave myocardial infarction, or ischemia-driven revascularization and the composite of mortality, Q-wave myocardial infarction, or stent thrombosis. Bleeding and adverse events through 48 hours were compared.
All efficacy analyses were performed on the modified intent-to-treat population, defined as all randomized patients who received at least one dose of study drug and underwent the index PCI. All safety-related analyses were performed on the safety population, which included all patients who received at least one dose of assigned study drug. Patients in the safety analyses were assigned to a treatment arm based on treatment actually received, not as randomized. Intent-to-treat analyses are also presented for full disclosure of results. All statistical tests were two-tailed using a level of significance of 0.05. […] Logistic regression was also used to analyze the majority of the remaining secondary endpoints.

CSCCNc1nc(SCCC(F)(F)F)nc2c1ncn2[C@@H]1O[C@H](COP(=O)(O)OP(=O)(O)C(Cl)(Cl)P(=O)(O)O)[C@@H](O)[C@H]1O [Cangrelor, cangrelor]
OR (95% CI): Hematoma ≧5 cm at puncture site ([1]; 48-hour, safety population, cangrelor vs clopidogrel): 1.12 (0.82, 1.53)
ACUITY criteria Major bleeding ([1]; human, in vivo, 48 h): 158 (3.6) no. (%)
ACUITY criteria Minor bleeding ([1]; human, in vivo, 48 h): 768 (17.6) no. (%)
Access site bleeding requiring radiologic or surgical intervention ([1]; human, in vivo, 48 h): 6 (0.1) no. (%)
Any blood transfusion ([1]; human, in vivo, 48 h): 46 (1.1) no. (%)
Any platelet transfusion ([1]; human, in vivo, 48 h): 6 (0.1) no. (%)
Drop in hemoglobin and/or hematocrit ([1]; human, in vivo, 48 h): 91 (2.1) no. (%)
Dyspnea ([1]; human, in vivo, 48 h): 1.0%
Ecchymosis ([1]; human, in vivo, 48 h): 284 (6.5) no. (%)
Epistaxis ([1]; human, in vivo, 48 h): 9 (0.2) no. (%)
GUSTO criteria Mild bleeding ([1]; human, in vivo, 48 h): 858 (19.6) no. (%)
GUSTO criteria Moderate bleeding ([1]; human, in vivo, 48 h): 41 (0.9) no. (%)
GUSTO criteria Severe/life-threatening bleeding ([1]; human, in vivo, 48 h): 10 (0.2) no. (%)
Hematoma <5 cm at puncture site ([1]; human, in vivo, 48 h): 251 (5.7) no. (%)
Hematoma ≧5 cm at puncture site ([1]; human, in vivo, 48 h): 85 (1.9) no. (%)
Hemodynamic compromise ([1]; human, in vivo, 48 h): 9 (0.2) no. (%)
Intracranial hemorrhage ([1]; human, in vivo, 48 h): 1 (0.0) no. (%)
Intraocular ([1]; human, in vivo, 48 h): 2 (0.0) no. (%)
OR (95% CI): ACUITY criteria Major bleeding ([1]; human, in vivo, 48 h): 1.26 (0.99, 1.60)
OR (95% CI): ACUITY criteria Minor bleeding ([1]; human, in vivo, 48 h): 1.19 (1.06, 1.33)
OR (95% CI): Access site bleeding requiring radiologic or surgical intervention ([1]; human, in vivo, 48 h): 0.60 (0.22, 1.65)
OR (95% CI): Any blood transfusion ([1]; human, in vivo, 48 h): 1.09 (0.72, 1.67)
OR (95% CI): Any platelet transfusion ([1]; human, in vivo, 48 h): 1.20 (0.37, 3.93)
OR (95% CI): Drop in hemoglobin and/or hematocrit ([1]; human, in vivo, 48 h): 1.45 (1.05, 2.01)
OR (95% CI): Ecchymosis ([1]; human, in vivo, 48 h): 1.23 (1.03, 1.47)
OR (95% CI): Epistaxis ([1]; human, in vivo, 48 h): 0.41 (0.19, 0.89)
OR (95% CI): GUSTO criteria Mild bleeding ([1]; human, in vivo, 48 h): 1.20 (1.07, 1.34)
OR (95% CI): GUSTO criteria Moderate bleeding ([1]; human, in vivo, 48 h): 1.21 (0.76, 1.90)
OR (95% CI): GUSTO criteria Severe/life-threatening bleeding ([1]; human, in vivo, 48 h): 0.91 (0.39, 2.14)
OR (95% CI): Hematoma <5 cm at puncture site ([1]; human, in vivo, 48 h): 1.14 (0.94, 1.37)
OR (95% CI): Hemodynamic compromise ([1]; human, in vivo, 48 h): 0.82 (0.34, 1.97)
OR (95% CI): Oozing at puncture site ([1]; human, in vivo, 48 h): 1.28 (1.10, 1.49)
OR (95% CI): Reoperation for bleeding ([1]; human, in vivo, 48 h): 1.00 (0.06, 15.96)
OR (95% CI): Retroperitoneal ([1]; human, in vivo, 48 h): 1.50 (0.67, 3.34)
OR (95% CI): TIMI criteria Major bleeding ([1]; human, in vivo, 48 h): 1.36 (0.68, 2.71)
OR (95% CI): TIMI criteria Minor bleeding ([1]; human, in vivo, 48 h): 1.39 (0.84, 2.30)
OR (95% CI): Thrombocytopenia ([1]; human, in vivo, 48 h): 0.86 (0.29, 2.55)
Oozing at puncture site ([1]; human, in vivo, 48 h): 400 (9.1) no. (%)
Reoperation for bleeding ([1]; human, in vivo, 48 h): 1 (0.0) no. (%)
Reported adverse events ([1]; human, in vivo, 48 h): 26.4%
Retroperitoneal ([1]; human, in vivo, 48 h): 15 (0.3) no. (%)
Serious adverse events ([1]; human, in vivo, 48 h): 2.7%
TIMI criteria Major bleeding ([1]; human, in vivo, 48 h): 19 (0.4) no. (%)
TIMI criteria Minor bleeding ([1]; human, in vivo, 48 h): 36 (0.8) no. (%)
Thrombocytopenia ([1]; human, in vivo, 48 h): 6 (0.1) no. (%)
discontinuation of study drug due to an adverse event ([1]; human, in vivo, 48 h): 0.5%
All-cause mortality ([2]; ITT): 36 (1.3) no. (%)
IDR ([2]; ITT): 37 (1.4) no. (%)
MI ([2]; ITT): 190 (7.1) no. (%)
Mortality/MI/IDR ([2]; ITT): 230 (8.6) no. (%)
Q-wave MI ([2]; ITT): 8 (0.3) no. (%)
Stent thrombosis ([2]; ITT): 15 (0.6) no. (%)
OR (95% CI): All-cause mortality ([2]; ITT): 0.754 (0.487, 1.167)
OR (95% CI): IDR ([2]; ITT): 0.743 (0.483, 1.142)
OR (95% CI): MI ([2]; ITT): 0.924 (0.752, 1.135)
OR (95% CI): Mortality/MI/IDR ([2]; ITT): 0.885 (0.734, 1.067)
OR (95% CI): Mortality/Q-wave MI/IDR ([2]; ITT): 0.718 (0.524, 0.984)
OR (95% CI): Mortality/Q-wave MI/Stent thrombosis ([2]; ITT): 0.648 (0.453, 0.927)
OR (95% CI): Q-wave MI ([2]; ITT): 0.526 (0.222, 1.242)
OR (95% CI): Stent thrombosis ([2]; ITT): 0.508 (0.272, 0.950)
Mortality/Q-wave MI/IDR ([2]; ITT): 69 (2.6) no. (%)
Mortality/Q-wave MI/Stent thrombosis ([2]; ITT): 51 (1.9) no. (%)
All-cause mortality ([2]; MITT): 33 (1.2) no. (%)
IDR ([2]; MITT): 37 (1.4) no. (%)
MI ([2]; MITT): 189 (7.1) no. (%)
Mortality/MI/IDR ([2]; MITT): 226 (8.5) no. (%)
Q-wave MI ([2]; MITT): 8 (0.3) no. (%)
Stent thrombosis ([2]; MITT): 15 (0.6) no. (%)
OR (95% CI): All-cause mortality ([2]; MITT): 0.725 (0.461, 1.140)
OR (95% CI): IDR ([2]; MITT): 0.796 (0.515, 1.231)
OR (95% CI): MI ([2]; MITT): 0.929 (0.756, 1.142)
OR (95% CI): Mortality/MI/IDR ([2]; MITT): 0.892 (0.739, 1.078)
OR (95% CI): Mortality/Q-wave MI/IDR ([2]; MITT): 0.730 (0.528, 1.008)
OR (95% CI): Mortality/Q-wave MI/Stent thrombosis ([2]; MITT): 0.647 (0.447, 0.935)
OR (95% CI): Q-wave MI ([2]; MITT): 0.566 (0.237, 1.352)
OR (95% CI): Stent thrombosis ([2]; MITT): 0.529 (0.282, 0.993)
Mortality/Q-wave MI/IDR ([2]; MITT): 66 (2.5) no. (%)
Mortality/Q-wave MI/Stent thrombosis ([2]; MITT): 48 (1.8) no. (%)
All-cause mortality ([2]; Safety population): 34 (1.3) no. (%)
IDR ([2]; Safety population): 37 (1.4) no. (%)
MI ([2]; Safety population): 188 (7.1) no. (%)
Mortality/MI/IDR ([2]; Safety population): 226 (8.5) no. (%)
Q-wave MI ([2]; Safety population): 8 (0.3) no. (%)
Stent thrombosis ([2]; Safety population): 15 (0.6) no. (%)
OR (95% CI): All-cause mortality ([2]; Safety population): 0.747 (0.477, 1.170)
OR (95% CI): IDR ([2]; Safety population): 0.779 (0.504, 1.202)
OR (95% CI): MI ([2]; Safety population): 0.913 (0.743, 1.122)
